We go through 12 compounds from US9403830B2, “Inhibitors of leukotriene production” (Boehringer Ingelheim International GmbH, priority 2012, dated 2016).

The structures appear in SMILES notation.

One assay deals with T1, human LTA4 hydrolase (Homo sapiens, UniProt P09960).
T1 sequence (P09960 1-611): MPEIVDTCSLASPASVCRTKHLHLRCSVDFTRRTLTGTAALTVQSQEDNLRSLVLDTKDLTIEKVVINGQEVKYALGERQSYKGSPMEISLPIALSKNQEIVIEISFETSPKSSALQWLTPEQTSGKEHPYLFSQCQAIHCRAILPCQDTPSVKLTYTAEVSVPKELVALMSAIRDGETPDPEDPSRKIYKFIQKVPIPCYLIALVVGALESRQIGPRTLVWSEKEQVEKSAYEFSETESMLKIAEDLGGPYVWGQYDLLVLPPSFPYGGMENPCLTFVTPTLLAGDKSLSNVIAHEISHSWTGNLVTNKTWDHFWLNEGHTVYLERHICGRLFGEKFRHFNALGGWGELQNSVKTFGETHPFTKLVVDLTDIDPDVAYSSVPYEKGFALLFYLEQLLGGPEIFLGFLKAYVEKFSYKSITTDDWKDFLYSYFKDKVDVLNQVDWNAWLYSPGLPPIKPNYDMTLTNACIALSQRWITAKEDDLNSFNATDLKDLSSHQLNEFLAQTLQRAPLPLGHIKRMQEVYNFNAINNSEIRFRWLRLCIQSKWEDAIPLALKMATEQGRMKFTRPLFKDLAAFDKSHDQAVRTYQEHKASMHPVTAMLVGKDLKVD
As to the kind of experiment: LTA4H Enzyme assay (peptidase, Arg-AMC cleavage). Format: biochemical. The following applies: LTA4H enzyme 1 nM, Arg-AMC substrate 50 μM, room temperature 1 h, fluorescence 380/460 nm. The method in brief: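 Human LTA4H (1 nM final) incubated with compound and Arg-AMC (50 μM final) in 50 mM Tris-HCl pH 7.5, 100 mM KCl, 0.5% BSA, 1 h at room temperature. Product read as AMC fluorescence (ex 380/em 460 nm); IC50 reported.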

The test system of assay [1] is LTB4 synthesis in human whole blood. As to the kind of experiment: human whole blood (HWB) assay, inhibition of LTB4 production. The assay is classed as cell-based. As to conditions: heparinized human whole blood, calcimycin 20 μM stimulation, plasma LTB4. The method in brief:
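Heparinized human whole blood preincubated with compound 15 min at 37 °C, then stimulated with 20 μM (final) calcimycin for 30 min at 37 °C. Plasma LTB4 measured by antibody-based HTRF; IC50 reported.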

Usually IC50 stands for the concentration at which inhibition is half-maximal. As to `c1cc(-c2ccc(Oc3ccc4[nH]c(CN5C[C@H]6CC[C@@H](C5)O6)nc4c3)cc2)[nH]n1` [Example 227, 3-{5-[4-(2H-Pyrazol-3-yl)-phenoxy]-1H-benzoimidazol-2-ylmethyl}-8-oxa-3-aza-bicyclo[3.2.1]octane], the IC50 was determined as 0.054 nM against human LTA4 hydrolase and 170 nM in assay [1].

`COC1CCN(Cc2nc3cc(Oc4ccc(-c5ccn[nH]5)cc4)ccc3[nH]2)CC1` [Example 228, 2-(4-Methoxy-piperidin-1-ylmethyl)-5-[4-(2H-pyrazol-3-yl)-phenoxy]-1H-benzoimidazole]: the IC50 at human LTA4 hydrolase stood at 0.16 nM; in assay [1] it was 180 nM.

`CN(Cc1nc2cc(Oc3ccc(-c4ccn[nH]4)cc3)ccc2[nH]1)[C@H]1CCCC[C@@H]1O` [Example 229, (1S,2S)-2-(Methyl-{5-[4-(2H-pyrazol-3-yl)-phenoxy]-1H-benzoimidazol-2-ylmethyl}-amino)-cyclohexanol]: the IC50 came to 0.22 nM at human LTA4 hydrolase and 190 nM in assay [1].

For `CN(Cc1nc2cc(Oc3ccc(-c4ccn[nH]4)cc3)ccc2[nH]1)C1CCOCC1` [Example 230, Methyl-{5-[4-(2H-pyrazol-3-yl)-phenoxy]-1H-benzoimidazol-2-ylmethyl}-(tetrahydro-pyran-4-yl)-amine], the IC50 against human LTA4 hydrolase is 0.19 nM; in assay [1], 200 nM.

`CC(=O)N1CCN(Cc2ccc3cc(Oc4ccc(-c5cc[nH]n5)cn4)ccc3n2)CC1` [Example 231, 1-(4-{6-[5-(1H-Pyrazol-3-yl)-pyridin-2-yloxy]-quinolin-2-ylmethyl}-piperazin-1-yl)-ethanone]: the IC50 at human LTA4 hydrolase amounted to 0.55 nM; in assay [1] it was 150 nM.

With `c1cc(-c2ccc(Oc3ccc4nc(OCCN5CCOCC5)sc4c3)cc2)n[nH]1` [Example 232, 2-(2-Morpholin-4-yl-ethoxy)-6-[4-(1H-pyrazol-3-yl)-phenoxy]-benzothiazole], the IC50 against human LTA4 hydrolase was 1.4 nM; in assay [1], 160 nM.

Regarding `CN(Cc1nc2cc(Oc3ccc(-c4ccn[nH]4)cc3)ccc2[nH]1)C(=O)C1CC1` [Example 233, Cyclopropanecarboxylic acid methyl-{5-[4-(2H-pyrazol-3-yl)-phenoxy]-1H-benzoimidazol-2-ylmethyl}-amide], the IC50 at human LTA4 hydrolase is 0.24 nM; in assay [1] it was 170 nM.

For `CC1(C)CCN(Cc2nc3cc(Oc4ccc(-c5ccn[nH]5)cc4)ccc3[nH]2)C1=O` [Example 234, 3,3-Dimethyl-1-{5-[4-(2H-pyrazol-3-yl)-phenoxy]-1H-benzoimidazol-2-ylmethyl}-pyrrolidin-2-one], the figures for the IC50 (against human LTA4 hydrolase; in assay [1]) were 0.26 nM and 180 nM, respectively.

In the case of `CCN(Cc1nc2cc(Oc3ccc(-c4ccn[nH]4)cc3)ccc2[nH]1)C(=O)C1CC1` [Example 235, Cyclopropanecarboxylic acid ethyl-{5-[4-(2H-pyrazol-3-yl)-phenoxy}-1H-benzoimidazol-2-ylmethyl}-amide], the values for the IC50 (at human LTA4 hydrolase; in assay [1]) were 0.43 nM and 180 nM, respectively.

As to `COCC(=O)NC1CCN(Cc2ccc3cc(Oc4ccc(-c5cc[nH]n5)cn4)ccc3n2)CC1` [Example 236, 2-Methoxy-N-(1-{6-[5-(1H-pyrazol-3-yl)-pyridin-2-yloxy]-quinolin-2-ylmethyl}-piperidin-4-yl)-acetamide], the IC50 came to 0.96 nM against human LTA4 hydrolase and 200 nM in assay [1].

Consider `CC(=O)NC1CCN(Cc2ccc3cc(Oc4ccc(-c5cc[nH]n5)cn4)ccc3n2)CC1` [Example 237, N-(1-{6-[5-(1H-Pyrazol-3-yl)-pyridin-2-yloxy]-quinolin-2-ylmethyl}-piperidin-4-yl)-acetamide], for which the IC50 is 0.84 nM against human LTA4 hydrolase and 210 nM in assay [1].

As to `CC(=O)NC1CC2CCC(C1)N2Cc1ccc2cc(Oc3ccc(-c4cc[nH]n4)cn3)ccc2n1` (stereo not drawn) [Example 238, N-((endo)-8-{6-[5-(1H-Pyrazol-3-yl)-pyridin-2-yloxy]-quinolin-2-ylmethyl}-8-aza-bicyclo[3.2.1]oct-3-yl)-acetamide], the IC50 on human LTA4 hydrolase is 0.61 nM; in assay [1], 250 nM.
